In publication PMC7313459, “Insights into the Mn^2+ Binding Site in the Agmatinase-Like Protein (ALP): A Critical Enzyme for the Regulation of Agmatine Levels in Mammals” (International Journal of Molecular Sciences, 2020):

Biological target: T1, central-ALP (Rattus norvegicus, UniProt A0A8I6ASI2)
T1 construct: gene Limch1
Assay: urea formation, colorimetric (alpha-isonitrosopropiophenone, […] nm)
Type: biochemical
Details: 5 mM MnCl2, 50 mM glycine-NaOH pH 9.0, 37 °C; not pre-heated

T1 sequence (A0A8I6ASI2 141-351): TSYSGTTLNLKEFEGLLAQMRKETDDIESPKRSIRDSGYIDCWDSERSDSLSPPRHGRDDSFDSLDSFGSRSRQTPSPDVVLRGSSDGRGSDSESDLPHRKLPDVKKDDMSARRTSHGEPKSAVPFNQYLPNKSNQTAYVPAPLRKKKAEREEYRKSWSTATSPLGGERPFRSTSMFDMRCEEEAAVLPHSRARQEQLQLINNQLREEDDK

N=C(N)NCCCCN [agmatine, 1-amino-4-guanidinobutane]
Km: 1200 ± 370 µM
